# From patent US7447594B2, “Molecular cardiotoxicology modeling” (Ocimum Biosolutions, Inc., priority 2001, dated 2008)
# Columns and labels:
# cellular glutathione = conditions: cited from earlier work
# [1] = cited from earlier work
# [2] = set-up: species or system male Sprague-Dawley rats; conditions: rat, in vivo, iv
# Method: Amphotericin B is a polyene, antifungal antibiotic used to treat fungal infections. Its clinical utility is limited by its nephrotoxicity and cardiotoxicity.
# The low and high dose level for each compound are provided in the chart below.
# Heart • A sagittal cross-section containing portions of the two atria and of the two ventricles was preserved in 10% NBF. The remaining heart was frozen in liquid nitrogen and stored at ˜−80° C.
# [3] = rat, in vivo; cited from earlier work
# [4] = cited from earlier work; remark: listed apart in the source
# [5] = person, small quantity ingested; cited from earlier work
# [6] = child, high-dose cyclophosphamide; cited from earlier work
# [7] = high-dose patients; cited from earlier work
# [8] = of 19 women treated with cyclophosphamide, thiotepa, and carboplatin; cited from earlier work
# [9] = cited from earlier work; remark: listed apart in the source
# [10] = cited from earlier work; remark: listed apart in the source
# [11] = intravenous injection, four hours post-dose; cited from earlier work
# [12] = cited from earlier work; for myocardial necrosis: young and mature rats
# [13] = rats 3 months to 2 years old, dosed over two days; cited from earlier work
# [14] = normotensive rats; cited from earlier work
# [15] = patients that do not have heart failure or use insulin; cited from earlier work
structure (smiles),measurement,setting,value
"C=CC=O [Acrolein, acrolein]",cellular glutathione levels,cellular glutathione,decrease cellular glutathione levels
"COc1cccc2c1C(=O)c1c(O)c3c(c(O)c1C2=O)C[C@@](O)(C(=O)CO)C[C@@H]3O[C@H]1C[C@H](N)[C@H](O)[C@H](C)O1 [adriamycin, doxorubicin]",serum enzymes (myocardial toxicity),"[1]; rat, in vivo","elevation of serum enzymes such as aspartate transaminase, lactate dehydrogenase, and creatine phosphokinase"
C[C@@H]1[C@H](O)[C@@H](C)/C=C/C=C/C=C/C=C/C=C/C=C/C=C/[C@H](O[C@@H]2O[C@H](C)[C@@H](O)[C@H](N)[C@@H]2O)C[C@@H]2O[C@](O)(C[C@@H](O)C[C@@H](O)[C@H](O)CC[C@@H](O)C[C@@H](O)CC(=O)O[C@H]1C)C[C@H](O)[C@H]2C(=O)O [amphotericin B],cardiomyopathy,[2],some early signs of cardiomyopathy
C[C@H](CS)C(=O)N1CCC[C@H]1C(=O)O [captopril],serum enzyme levels and white blood cell counts,[1]; captopril pre-treatment before adriamycin,significant reduction in serum enzyme levels as well as restoration of white blood cell counts
CC(C)(C)NCC(O)c1cc(Cl)c(N)c(Cl)c1 (centres unmarked) [clenbuterol],muscle hypertrophy,[3],hypertrophy of the heart and latissimus dorsi muscle
same,aortic root dimensions,[4]; in vivo,significantly increased aortic root dimensions
same,left ventricular dimensions,[4]; vs exercised and control mares,significantly higher left ventricular internal dimension and interventricular septal wall thickness at end diastole
same,clinical findings after ingestion,[5],"sustained sinus tachycardia, hypokalemia, hypophosphatemia, and hypomagnesemia"
O=P1(N(CCCl)CCCl)NCCCO1 (centres unmarked) [cyclophosphamide],cardiac findings,[6],cardiac arrhythmias and intractable hypotension
same,patients who died of congestive heart failure,[7],Six
same,patients who developed moderate congestive heart failure,[8],six
same,patients with clinical cardiotoxicity who were in the high-dose group,[9]; out of five patients who developed clinical cardiotoxicity,four
same,left ventricular mass index,"[9]; twice-daily high-dose treatment (174+/−34 mg/kg), within a week",increase in left ventricular mass index
COc1cccc2c1C(=O)c1c(O)c3c(c(O)c1C2=O)C[C@@](O)(C(=O)CO)C[C@@H]3O[C@H]1C[C@H](N)[C@@H](O)[C@H](C)O1 [epirubicin],"of these patients, deteriorated into congestive heart failure","[10]; human, in vivo",20%
same,patients with a 25% relative reduction in left ventricular ejection fraction,"[10]; three years after epirubicin treatment, 120 patients",Approximately 59%
NNc1nncc2ccccc12 [hydralazine],early focal myocardial lesions (histopathology),[11],Lesions were observed
same,blood pressure and heart rate effects,"[12]; rat, in vivo",Hypotension and reflex tachycardia
same,myocardial necrosis,[12],Myocardial necrosis was observed in both age groups
CC(C)NCC(O)c1ccc(O)c(O)c1 (centres unmarked) [isoproterenol],myocardial necrosis,[12],Myocardial necrosis was observed in both age groups
Nc1cc(N2CCCCC2)nc(N)[n+]1[O-] [minoxidil],heart lesions,[13],interstitial hemorrhages at all dose levels
same,cardiac enlargement,[14],"enlargement of the left ventricle, right ventricle, and interventricular septum"
same,myocardial necrosis,[12],Myocardial necrosis was observed in both age groups
CN(CCOc1ccc(CC2SC(=O)NC2=O)cc1)c1ccccn1 (centres unmarked) [rosiglitazone],edema,[15],moderate-to-severe edema
